This is an account of results in patent publication US20240208940A1, “SMALL-MOLECULE INHIBITORS FOR BETA-CATENIN/BCELL LYMPHOMA 9 PROTEIN-PROTEIN INTERACTION” (H. LEE MOFFITT CANCER CENTER AND RESEARCH INSTITUTE, INC., priority 2021, published 2024).

In this assay the target is β-catenin/BCL9 PPI (Homo sapiens (Human), UniProt P35222). Put plainly: AlphaScreen competitive inhibition assay of β-catenin/BCL9 PPI. In kind it is binding. To be noted: mean ± standard deviation (n = 3); for Ki: derived from IC50, read-out: Ki ± SD. The method, then: AlphaScreen Assays of β-Catenin and BCL9 Interaction. Experiments were performed in white opaque 384-well plates from PerkinElmer (Waltham, MA), and the samples were read on a Biotek Synergy 2 plate reader (Winooski, VT) with excitation at 680 nm and emission at 570 nm. The standard AlphaScreen protocol was used with a sensitivity setting of 200. All dilutions were made in 1× assay buffer containing 25 mM Hepes (pH 7.4), 100 mM NaCl, 0.01% Triton X-100 and 0.1% BSA to minimize nonspecific interactions. For the competitive inhibition assays of β-catenin/BCL9 PPI, the negative control (equivalent to 0% inhibition) refers to 5.0 nM biotinylated BCL9, 50 nM His6-tagged β-catenin, and 10 μg/mL donor and acceptor beads in a final volume of 25 μL assay buffer, but no tested inhibitor present. The positive control (equivalent to 100% inhibition) refers to 5.0 nM biotinylated BCL9 and 10 μg/mL donor and acceptor beads in a final volume of 25 μL assay buffer.
For the β-catenin/BCL9 assay, 5 nM biotinylated BCL9 and 50 nM His6-tagged β-catenin were incubated in assay buffer for 30 min. Different concentrations of the tested inhibitor were added and incubated in 20 μL assay buffer for another 1 h. All of the assay plates were covered and gently mixed on an orbital shaker. The donor and acceptor beads were then added to the plates to a final concentration of 10 μg/mL in 25 μL assay buffer. The mixture was incubated for 1 h before detection. The IC50 value was determined by nonlinear least-square analysis of GraphPad Prism 8.0. The Ki values were derived from the IC50 values using a method reported by Wang and coworkers.^65 The equation used is Ki=[I]50/([L]50/Kd+[P]0/Kd+1) (Where [I]50 denotes the concentration of the free inhibitor at 50% inhibition, [L]50 is the concentration of the free labeled ligand at 50% inhibition, [P]0 is the concentration of the free protein at 0% inhibition, and Kd is the dissociation constant of the protein-ligand complex). All of the experiments were performed in triplicate and carried out in the presence of 1% DMSO for small-molecule inhibitors. Each compound was assayed at least by three independent experiments. The results were expressed as mean±standard deviation.
In general terms: In Alpha technology, singlet oxygen from a donor bead excites a nearby acceptor bead.

Structures can show the parent of a compound that is named as a salt. Some results are limits rather than exact numbers.

Sequence of β-catenin/BCL9 PPI (P35222 whole entry): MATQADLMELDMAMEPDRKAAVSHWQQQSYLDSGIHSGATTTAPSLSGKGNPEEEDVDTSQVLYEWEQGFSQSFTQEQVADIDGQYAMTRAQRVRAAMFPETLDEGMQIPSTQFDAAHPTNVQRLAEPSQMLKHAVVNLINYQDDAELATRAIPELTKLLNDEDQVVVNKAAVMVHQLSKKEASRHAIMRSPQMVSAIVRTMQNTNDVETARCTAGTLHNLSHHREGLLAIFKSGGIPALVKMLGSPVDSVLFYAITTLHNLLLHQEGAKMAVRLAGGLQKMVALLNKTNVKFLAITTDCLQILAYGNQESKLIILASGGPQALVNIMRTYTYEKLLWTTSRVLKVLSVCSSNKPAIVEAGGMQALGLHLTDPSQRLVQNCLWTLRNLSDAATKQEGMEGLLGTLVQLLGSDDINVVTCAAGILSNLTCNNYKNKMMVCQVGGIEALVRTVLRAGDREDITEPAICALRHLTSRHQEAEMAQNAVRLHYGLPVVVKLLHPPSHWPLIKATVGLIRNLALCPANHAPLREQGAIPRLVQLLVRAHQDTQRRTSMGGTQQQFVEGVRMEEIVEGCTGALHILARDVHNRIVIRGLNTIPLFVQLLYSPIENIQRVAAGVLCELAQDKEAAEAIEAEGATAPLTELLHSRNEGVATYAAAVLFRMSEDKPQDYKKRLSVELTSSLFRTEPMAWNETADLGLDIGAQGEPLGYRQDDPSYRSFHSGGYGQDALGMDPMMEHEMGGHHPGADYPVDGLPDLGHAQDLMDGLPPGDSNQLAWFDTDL

In general, Ki refers to a dissociation constant, usually derived from enzyme kinetics or from competition with a known ligand. In general, IC50 refers to the concentration that inhibits the measured activity by half. On to `O=C(c1ccc(O[C@H]2CCNC2)c(C2CCCCC2)c1)N1CCC(Oc2cc(F)cc(N3CCC4(CC3)CNC4)c2)CC1` [Compound 3, (S)-(3-cyclohexyl-4-(pyrrolidin-3-yloxy)phenyl)(4-(3-fluoro-5-(2,7-diazaspiro[3.5]nonan-7-yl)phenoxy)piperidin-1-yl)methanone ditrifluoroacetic acid], for which the Ki was over 84 µM and the IC50 is over 100 µM.
The matching figures for `O=C(c1ccc(O[C@H]2CCNC2)c(C2CCCCC2)c1)N1CCC(Oc2cc(F)cc(N3C[C@H]4CNC[C@H]4C3)c2)CC1` [Compound 4, (S)-(3-cyclohexyl-4-(((S)-pyrrolidin-3-yl)oxy)phenyl)(4-(3-fluoro-5-((3aR,6aS)-hexahydropyrrolo[3,4-c]pyrrol-2(1H)-yl)phenoxy)piperidin-1-yl)methanone ditrifluoroacetic acid]: over 84 µM and over 100 µM.
With `O=C(c1ccc(O[C@H]2CCNC2)c(C2CCCCC2)c1)N1CCC(Oc2cc(F)cc(N3CCC4(CCNC4)C3)c2)CC1` (stereo partly drawn) [Compound 5, (3-cyclohexyl-4-(((S)-pyrrolidin-3-yl)oxy)phenyl)(4-(3-fluoro-5-(2,7-diazaspiro[4.4]nonan-2-yl)phenoxy)piperidin-1-yl)methanone ditrifluoroacetic acid], the Ki was at most 40 µM and the IC50 was at most 40 µM.
For `O=C(c1ccc(OC2CCNCC2)c(C2CCCCC2)c1)N1CCC(Oc2cc(F)cc(N3CCNCC3)c2)CC1` [Compound 6, (3-cyclohexyl-4-(piperidin-4-yloxy)phenyl)(4-(3-fluoro-5-(piperazin-1-yl)phenoxy)piperidin-1-yl)methanone ditrifluoroacetic acid], the Ki was over 84 µM and the IC50 is over 100 µM.
The matching figures for `O=C(c1ccc(O[C@@H]2CCNC2)c(C2CCCCC2)c1)N1CCC(Oc2cc(F)cc(N3CCNCC3)c2)CC1` [Compound 7, (R)-(3-cyclohexyl-4-(pyrrolidin-3-yloxy)phenyl)(4-(3-fluoro-5-(piperazin-1-yl)phenoxy)piperidin-1-yl)methanone dihydrochloride]: at most 60 µM and at most 70 µM.
The matching figures for `O=C(c1ccc(O[C@H]2CCNC2)c(-c2ccccc2)c1)N1CCC(Oc2cc(F)cc(N3CCNCC3)c2)CC1` [Compound 8, (S)-(4-(3-fluoro-5-(piperazin-1-yl)phenoxy)piperidin-1-yl)(6-(pyrrolidin-3-yloxy)-[1,1′-biphenyl]-3-yl)methanone dihydrochloride]: at most 50 µM and at most 50 µM.
For the compound `O=C(c1ccc(O[C@H]2CCNC2)c(-c2ccc(C(F)(F)F)cc2)c1)N1CCC(Oc2cc(F)cc(N3CCNCC3)c2)CC1` [Compound 9, (S)-(4-(3-fluoro-5-(piperazin-1-yl)phenoxy)piperidin-1-yl)(6-(pyrrolidin-3-yloxy)-4′-(trifluoromethyl)-[1,1′-biphenyl]-3-yl)methanone dihydrochloride], the Ki is at most 20 µM and the IC50 is at most 20 µM.
Take `CC(C)(C)c1ccc(-c2cc(C(=O)N3CCC(Oc4cc(F)cc(N5CCNCC5)c4)CC3)ccc2O[C@H]2CCNC2)cc1` [Compound 10, (S)-(4′-(tert-butyl)-6-(pyrrolidin-3-yloxy)-[1,1′-biphenyl]-3-yl)(4-(3-fluoro-5-(piperazin-1-yl)phenoxy)piperidin-1-yl)methanone dihydrochloride]: the Ki is at most 20 µM and the IC50 was at most 20 µM.
Turning to `O=C(c1ccc(O[C@H]2CCNC2)c(-c2ccc3ccsc3c2)c1)N1CCC(Oc2cc(F)cc(N3CCNCC3)c2)CC1` [Compound 11, (S)-(3-(benzo[b]thiophen-6-yl)-4-(pyrrolidin-3-yloxy)phenyl)(4-(3-fluoro-5-(piperazin-1-yl)phenoxy)piperidin-1-yl)methanone dihydrochloride], the Ki was at most 5 µM and the half-inhibitory concentration (IC50) was at most 5 µM.
On to `O=C(c1ccc(O[C@H]2CCNC2)c(-c2ccc3ccccc3c2)c1)N1CCC(Oc2cc(F)cc(N3CCNCC3)c2)CC1` [Compound 12, (S)-(4-(3-fluoro-5-(piperazin-1-yl)phenoxy)piperidin-1-yl)(3-(naphthalen-2-yl)-4-(pyrrolidin-3-yloxy)phenyl)methanone dihydrochloride], for which the Ki was at most 5 µM and the IC50 is at most 5 µM.
`Cn1cc(-c2cc(C(=O)N3CCC(Oc4cc(F)cc(N5CCNCC5)c4)CC3)ccc2O[C@H]2CCNC2)cn1` [Compound 13, (S)-(4-(3-fluoro-5-(piperazin-1-yl)phenoxy)piperidin-1-yl)(3-(1-methyl-1H-pyrazol-4-yl)-4-(pyrrolidin-3-yloxy)phenyl)methanone dihydrochloride]: the Ki was at most 10 µM and the IC50 was at most 10 µM.
Regarding `O=C(c1ccc(O[C@H]2CCNC2)c(-c2ccc3[nH]ncc3c2)c1)N1CCC(Oc2cc(F)cc(N3CCNCC3)c2)CC1` [Compound 14, (S)-(3-(1H-indazol-5-yl)-4-(pyrrolidin-3-yloxy)phenyl)(4-(3-fluoro-5-(piperazin-1-yl)phenoxy)piperidin-1-yl)methanone dihydrochloride], the Ki was at most 10 µM and the IC50 is at most 10 µM.
As for `O=C(c1ccc(O[C@H]2CCNC2)c(-c2ccc3cn[nH]c3c2)c1)N1CCC(Oc2cc(F)cc(N3CCNCC3)c2)CC1` [Compound 15, (S)-(3-(1H-indazol-6-yl)-4-(pyrrolidin-3-yloxy)phenyl)(4-(3-fluoro-5-(piperazin-1-yl)phenoxy)piperidin-1-yl)methanone dihydrochloride], the Ki was at most 20 µM and the IC50 was at most 20 µM.
With `O=C(c1ccc(O[C@H]2CCNC2)c(-c2ccc3[nH]cnc3c2)c1)N1CCC(Oc2cc(F)cc(N3CCNCC3)c2)CC1` [Compound 16, (S)-(3-(1H-benzo[d]imidazol-5-yl)-4-(pyrrolidin-3-yloxy)phenyl)(4-(3-fluoro-5-(piperazin-1-yl)phenoxy)piperidin-1-yl)methanone dihydrochloride], the Ki was at most 50 µM and the IC50 is at most 50 µM.
Regarding `O=C(c1ccc(O[C@H]2CCNC2)c(-c2cn[nH]c2)c1)N1CCC(Oc2cc(F)cc(N3CCNCC3)c2)CC1` [Compound 17, (S)-(3-(1H-pyrazol-4-yl)-4-(pyrrolidin-3-yloxy)phenyl)(4-(3-fluoro-5-(piperazin-1-yl)phenoxy)piperidin-1-yl)methanone dihydrochloride], the Ki was at most 2 µM and the 50% inhibitory concentration (IC50) was at most 2 µM.
Take `O=C(c1ccc(O[C@H]2CCNC2)c(C2CCOCC2)c1)N1CCC(Oc2cc(F)cc(N3CCNCC3)c2)CC1` [Compound 20, (S)-(4-(3-fluoro-5-(piperazin-1-yl)phenoxy)piperidin-1-yl)(4-(pyrrolidin-3-yloxy)-3-(tetrahydro-2H-pyran-4-yl)phenyl)methanone dihydrochloride]: the Ki was about 84 µM and the half-maximal inhibitory concentration (IC50) is about 100 µM.
`O=C(c1ccc(O[C@H]2CCNC2)c(C2CCN(C(=O)C3CC3)CC2)c1)N1CCC(Oc2cc(F)cc(N3CCNCC3)c2)CC1` [Compound 21, (S)-(3-(1-(cyclopropanecarbonyl)piperidin-4-yl)-4-(pyrrolidin-3-yloxy)phenyl)(4-(3-fluoro-5-(piperazin-1-yl)phenoxy)piperidin-1-yl)methanone dihydrochloride]: the inhibitory constant (Ki) is at most 50 µM and the IC50 is at most 50 µM.
As to `CC(C)C(=O)N1CCC(c2cc(C(=O)N3CCC(Oc4cc(F)cc(N5CCNCC5)c4)CC3)ccc2O[C@H]2CCNC2)CC1` [Compound 22, (S)-1-(4-(5-(4-(3-fluoro-5-(piperazin-1-yl)phenoxy)piperidine-1-carbonyl)-2-(pyrrolidin-3-yloxy)phenyl)piperidin-1-yl)-2-methylpropan-1-one dihydrochloride], the Ki was at most 50 µM and the IC50 is at most 50 µM.
For the compound `CC(O)C(=O)N1CCC(c2cc(C(=O)N3CCC(Oc4cc(F)cc(N5CCNCC5)c4)CC3)ccc2O[C@H]2CCNC2)CC1` (stereo partly drawn) [Compound 23, 1-(4-(5-(4-(3-fluoro-5-(piperazin-1-yl)phenoxy)piperidine-1-carbonyl)-2-(((S)-pyrrolidin-3-yl)oxy)phenyl)piperidin-1-yl)-2-hydroxypropan-1-one dihydrochloride], the Ki was at most 50 µM and the IC50 was at most 50 µM.
On to `CC(C)(C)C(=O)N1CCC(c2cc(C(=O)N3CCC(Oc4cc(F)cc(N5CCNCC5)c4)CC3)ccc2O[C@H]2CCNC2)CC1` [Compound 24, (S)-1-(4-(5-(4-(3-fluoro-5-(piperazin-1-yl)phenoxy)piperidine-1-carbonyl)-2-(pyrrolidin-3-yloxy)phenyl)piperidin-1-yl)-2,2-dimethylpropan-1-one dihydrochloride], for which the Ki was about 84 µM and the IC50 was about 100 µM.
